According to patent publication US20070003542A1, “Methods for treating diseases or conditions with peptide constructs” (priority 2002, published 2007):
Values joined by “and” are separate entries in the source; they are usually repeats but may differ in a detail not shown here. Identical values can stand only once.

How the values were obtained:
[1] = system: Plasmodium yoelii sporozoites; experiment: malaria protection assay, sporozoite challenge of immunized mice; type: in vivo; conditions: for Protection: 25 μg 2 times at 3 week intervals in TiterMax, 100 sporozoites
Description: In particular, mice were immunized twice at three week intervals with 25 μg of the subunits (W or G) used to make the L.E.A.P.S.™ construct (GW), and were challenged with 200 plasmodium yoelii sporozoites 2 weeks after the second immunization. Protective efficacy was evaluated by thin blood smears every other day starting 4 days after the challenge. Mice were considered protected if no blood stage parasites were detectable by 14 days after challenge.
(§1) Next using another antigen with B and T cell activity two inbred strains of mice, (A/J and Balb/c) were immunized twice at three week intervals with the L.E.A.P.S.™ constructs (J-GF/SF or der-SF/GF) or with the subunits (SF/GF, J and derG) used to make heteroconjugated peptides, and were challenged with 100 Plasmodium yoelii sporozoites 2 weeks after the second immunization and protection efficacy evaluated as before. Four days before challenge, serum was collected from individual animals, pooled and analyzed immediately for antibody to SF/GF peptide sera collected from immunized and protected mice 15 days post challenge were pooled and used for IFN-γ determination by ELISA procedures.
Groups of 10 mice were pre-treated 2 times at 3 week intervals with 25 μg of derG in TiterMax™ adjuvant and challenged with 100 Plasmodium yoelii sporozoites. Protective efficacy was evaluated as described above.

SF/GF peptide = experiment: serum antibody ELISA to SF/GF peptide; type: in vivo, mice; set-up: scale not given here; conditions: serum pool four days before challenge
Excerpt: as §1

IFN-γ = experiment: serum IFN-γ determination by ELISA; type: in vivo; conditions: A/J mice, serum pool 15 days post challenge
Excerpt: as §1

HSV-1 = experiment: scarification zosteriform spread model of HSV infection; type: in vivo; conditions: A/J mice
Description: Groups of 4- to 6-wk old female A/J mice were subcutaneously inoculated once with 25 μg of the derG peptide emulsified in ISA51 adjuvant at a 1:1 ratio before challenge unless otherwise specified. Untreated mice and mice treated with adjuvant served as additional controls. The mice were challenged as specified in methods well known to those of ordinary skill in the art and as exemplified by Goel et al. (“The Ability of an HSV Strain to Initiate Zosteriform Spread Correlates with its Neuroinvasive Disease Potential”, Arch Virol 147:763-773 (2002)) and Goel et al., (“A Modification Of The Epidermal Scarification Model Of Herpes Simplex Virus Infection To Achieve A Reproducible And Uniform Progression Of Disease”, J Virol Meth 106; 153-8 (2002)).
In particular, hair is removed by shaving and then Nair® is applied. Twenty-fours later the depilated back of a mouse is scratched or abraded to expose the susceptible epidermal layer and virus rubbed in. To provide more detail, 10 μl of a virus suspension containing 6×10^4 plaque forming units was pipetted onto a 0.5 cm square of skin on mouse dorsal surface, which was previously abraded using sand paper glued on a pencil eraser. In untreated animals, the primary lesion developed at the inoculation site within 3 days and spread to the associated root, followed by anterograde transport and formation of secondary lesions at sites along the dermatome of the nerves within 5 days. In severe cases, animals died within 8 days post viral challenge. Disease progression and survival were monitored for at least 10 days. […] The progression and the severity of the lesions was scored from 0 to 7 (death). This model allows for discrimination of the disease progression (local site, neuronal spread, extent of lesion at the dermatome, death) at which the immune system blocks viral progression. In some experiments modifications in the timing, route of administration and mouse strain were evaluated for efficacy of CEL-1000.

B16 melanoma = experiment: allogeneic murine B16 melanoma protection model; type: in vivo, mice; conditions: in combination with allogeneic K1735 cells; B16 challenge; two experiments
Description: In particular, C57/b16 (H2^b) mice are vaccinated with the allogeneic melanoma K1735 (H2^k) at least twice on weekly intervals and then challenged with syngeneic B16 (H2^b) tumors. […] This is clear evidence of cross-priming and the existence of shared antigens.
Peptide constructs were prepared using as T cell binding ligand, either derG (SEQ ID NO. 7), Peptide G (SEQ ID NO. 5). The peptides are synthesized using the FMOC procedure and a double coupling protocol for the first 8 residues. Usually the peptide is prepared with the carboxyl terminus as an amide form. All of the peptides are purified using preparative HPLC, and analyzed by an analytical HPLC, amino acid analysis and mass spectrophotometer. The peptides are greater than 95%, usually greater than 98%, pure by HPLC criteria. The dry peptides are stored in vials with desiccant at −8° C. • 1) Eight groups of seven mice were injected with 200 μl of the vaccine as shown in FIG. 1. • 2) This was repeated after 7 days. • 3) A further 7 days later, mice were challenged with 200 μl saline containing 5×10^4 live B16 on the contralateral side to vaccination. • 4) Mice were sacrificed when tumor size exceeded 15 mm in either axis.
In order more precisely model the use of clinical allogeneic vaccines, a frozen vaccine was used in the mouse model wherein K-1735 cells were thawed just prior to use. […]

[2] = A/J mice, dose 1.25 μg (Table 6)
[3] = A/J mice, dose 2.5 μg (Table 6)
[4] = A/J mice, dose 5 μg, 100 sporozoites (Table 5)
[5] = A/J mice, dose 25 μg, 100 sporozoites (Table 5)
[6] = Balb/c mice, dose 25 μg, 100 sporozoites (Table 5)

In the case of “DGQEEKAGVVSTGLIGGG [derG, modified fragment from MHC II β-chain (a.a. 135-149)]”, the Protection ([1]; A/J mice) is reported as 80, the “Protection (%)” value [1, 2] is reported as 60% and the “Protection Protected/Tested” value [1, 2] is reported as 6/10. The “Protection (%)” value [1, 3] was 80%, the “Protection Protected/Tested” value [1, 3] was 9/10 and the “Protection (%)” value ([1]; A/J mice, dose 5 μg (Table 6)) was 100%. For the same sequence, the “Protection Protected/Tested” value ([1]; A/J mice, dose 5 μg (Table 6)) was 10/10, the “Protection (%)” value [1, 4] was 100% and the “Protection Protected/Tested” value [1, 4] was 10/10. For the same sequence, the “Protection (%)” value [1, 5] was 100%, the “Protection Protected/Tested” value [1, 5] was 10/10 and the Protection ([1]; BALB/c mice) was 0. For the same sequence, the “Protection (%)” value [1, 6] was 0%, the “Protection Protected/Tested” value [1, 6] was 0/10 and the Protection ([1]; C3H mice) was 40. For the same sequence, the Protection ([1]; CAF1 hybrid mice) was 40, the “Antibody EL1SA A490*” value (SF/GF peptide; A/J mice, dose 5 μg) was 2 and the “Antibody EL1SA A490*” value (SF/GF peptide; A/J mice, dose 25 μg) was 2. For the same sequence, the “Antibody EL1SA A490*” value (SF/GF peptide; Balb/c mice, dose 25 μg) was 4, the IFN-γ serum (IFN-γ; dose 5 μg) was 40,000 pg/mL and the IFN-γ serum (IFN-γ; dose 25 μg) was 18,000 pg/mL. For the same sequence, the “protection from lethal HSV-1 challenge” value (HSV-1) was “protects A/J mice from lethal HSV-1 challenge”, the Protection (HSV-1; intramuscularly 2 weeks prior to challenge, without adjuvant, in aqueous solution) was 100% and the “onset of symptoms, morbidity and mortality, zosteriform spread” value (HSV-1; single dose of 25 μg, timing of administration (FIG. 3)) was “delay in onset of symptoms”. For the same sequence, the Protection (B16 melanoma) was 30% and 40%.
With “DGQEEKAGVVSTGLIGGGSFPMNEESPLGFSPEEMEAVASKFR [derG-GF/SF]” the “Protection (%)” value ([1]; A/J mice, dose 5 μg (Table 6)) was 10%, the “Protection (%)” value [1, 4] was 80% and the “Protection (%)” value [1, 5] was 100%. For the same sequence, the “Protection (%)” value [1, 6] was 0%, the “Antibody EL1SA A490*” value (SF/GF peptide; A/J mice, dose 5 μg) was 1,933 and the “Antibody EL1SA A490*” value (SF/GF peptide; A/J mice, dose 25 μg) was 10,694. The “Antibody EL1SA A490*” value (SF/GF peptide; Balb/c mice, dose 25 μg) was 17,019.
With “DLLKNGERIEKVEGGG SFPMNEESPLGFSPEEMEAVASKFR [J-GF/SF]” the “Protection (%)” value [1, 4] was 10%, the “Protection (%)” value ([1]; A/J mice, dose 10 μg (Table 6)) was 56% and the “Protection (%)” value [1, 5] was 100%. The “Protection (%)” value [1, 6] was 0%, the “Antibody EL1SA A490*” value (SF/GF peptide; A/J mice, dose 5 μg) was 1,103 and the “Antibody EL1SA A490*” value (SF/GF peptide; A/J mice, dose 25 μg) was 6,121. For the same sequence, the “Antibody EL1SA A490*” value (SF/GF peptide; Balb/c mice, dose 25 μg) was 11,454.
With “DLLKNGERIEKVEGGG [J, short fragment from β2-microglobulin (a.a. 38-50)]” the “Protection (%)” value [1, 4] was 10%, the “Protection (%)” value ([1]; A/J mice, dose 10 μg (Table 6)) was 10% and the “Protection (%)” value [1, 5] was 10%. For the same sequence, the “Protection (%)” value [1, 6] was 0%, the “Antibody EL1SA A490*” value (SF/GF peptide; A/J mice, dose 5 μg) was 1 and the “Antibody EL1SA A490*” value (SF/GF peptide; A/J mice, dose 25 μg) was 2. The “Antibody EL1SA A490*” value (SF/GF peptide; Balb/c mice, dose 25 μg) was 2.
For SFPMNEESPLGFSPEEMEAVASKFR [GF/SF], the “Protection (%)” value ([1]; A/J mice, dose 5 μg (Table 6)) was 10%, the “Protection (%)” value [1, 4] was 30% and the “Protection (%)” value ([1]; A/J mice, dose 10 μg (Table 6)) was 50%. For the same sequence, the “Protection (%)” value [1, 5] was 100%, the “Antibody EL1SA A490*” value (SF/GF peptide; A/J mice, dose 5 μg) was 8,443 and the “Antibody EL1SA A490*” value (SF/GF peptide; A/J mice, dose 25 μg) was 19,970.
